Data on 2 molecules can be found in ChEMBL document CHEMBL6071211, “Invention of VH-937, a Potent HIV-1 Maturation Inhibitor with the Potential for Infrequent Oral Dosing in Humans” (ACS Med Chem Lett, 2024).

Assay [1] deals with Human immunodeficiency virus 1. As to the kind of experiment: Binding affinity to HIV1 Gag A364V mutant assessed as dissociation half life by virus-like particle (VLP) assay.
For assay [2], the system named is Human immunodeficiency virus 1. As to the kind of experiment: In vitro antiviral activity against fully replicating wild type HIV1 NL4-3 in presence of human serum. As to conditions: Human immunodeficiency virus 1, NL4-3. The class given is functional, organism-based.

As a reminder, the EC50 is the concentration at which the effect is half-maximal.

Regarding `C=C(C)[C@@H]1CC[C@]2(NCCN3CCS(=O)(=O)CC3)CC[C@]3(C)[C@H](CC[C@@H]4[C@@]5(C)CC=C(c6ccc(C(=O)O)cc6)C(C)(C)[C@@H]5CC[C@]43C)[C@@H]12`, the T1/2 in assay [1] was less than 1 min.

`C=C(C)[C@@H]1CC[C@]2(NCCN3CCS(=O)(=O)CC3)CC[C@]3(C)[C@H](CC[C@@H]4[C@@]5(C)CC=C(C6=CC[C@@](CF)(C(=O)O)CC6)C(C)(C)[C@@H]5CC[C@]43C)[C@@H]12` [FIPRAVIRIMAT]: in assay [2], the EC50 turned out to be 13.9 nM. For the same molecule, the T1/2 in assay [1] is less than 1 min.
